Test results as given in paper PMC12073725, “Luminal Sweet Sensing and Enteric Nervous System Participate in Regulation of Intestinal Glucose Transporter, GLUT2” (Nutrients, 2025).

Molecular target: T1, pig T1R2–T1R3 (Sus scrofa, UniProt I1ZBR6+Q0EF93)
T1 construct: gene TAS1R2; heterodimer; full-length, custom-synthesised genes in modified pcDNA3/TO; N-terminal rat sst3 tags, C-terminal FLAG or HSV tags; HEK293PEAKrapid cells stably expressing Galpha15
T1 sequence (I1ZBR6 20-835): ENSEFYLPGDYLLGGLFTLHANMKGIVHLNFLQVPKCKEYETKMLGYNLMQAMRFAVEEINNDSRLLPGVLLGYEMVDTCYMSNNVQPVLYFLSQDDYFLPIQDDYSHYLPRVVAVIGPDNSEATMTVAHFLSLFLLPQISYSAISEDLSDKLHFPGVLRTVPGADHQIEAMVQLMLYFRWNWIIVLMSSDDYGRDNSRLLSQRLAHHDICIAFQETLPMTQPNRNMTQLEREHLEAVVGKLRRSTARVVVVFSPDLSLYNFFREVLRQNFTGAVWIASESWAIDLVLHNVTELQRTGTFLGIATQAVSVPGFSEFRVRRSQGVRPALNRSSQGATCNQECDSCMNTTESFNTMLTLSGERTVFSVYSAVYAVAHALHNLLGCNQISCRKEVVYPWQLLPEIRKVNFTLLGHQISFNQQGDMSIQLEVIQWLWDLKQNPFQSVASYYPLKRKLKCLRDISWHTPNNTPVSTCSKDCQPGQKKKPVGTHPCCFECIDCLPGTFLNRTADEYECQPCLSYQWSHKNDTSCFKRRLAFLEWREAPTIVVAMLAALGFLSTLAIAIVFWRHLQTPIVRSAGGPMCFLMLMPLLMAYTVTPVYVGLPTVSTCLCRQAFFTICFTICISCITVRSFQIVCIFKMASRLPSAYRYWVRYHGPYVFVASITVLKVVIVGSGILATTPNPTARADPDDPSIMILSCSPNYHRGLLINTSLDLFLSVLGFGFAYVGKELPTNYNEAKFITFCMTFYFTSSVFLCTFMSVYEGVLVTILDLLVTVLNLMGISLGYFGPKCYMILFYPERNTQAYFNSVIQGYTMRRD
T1 sequence (Q0EF93 19-855): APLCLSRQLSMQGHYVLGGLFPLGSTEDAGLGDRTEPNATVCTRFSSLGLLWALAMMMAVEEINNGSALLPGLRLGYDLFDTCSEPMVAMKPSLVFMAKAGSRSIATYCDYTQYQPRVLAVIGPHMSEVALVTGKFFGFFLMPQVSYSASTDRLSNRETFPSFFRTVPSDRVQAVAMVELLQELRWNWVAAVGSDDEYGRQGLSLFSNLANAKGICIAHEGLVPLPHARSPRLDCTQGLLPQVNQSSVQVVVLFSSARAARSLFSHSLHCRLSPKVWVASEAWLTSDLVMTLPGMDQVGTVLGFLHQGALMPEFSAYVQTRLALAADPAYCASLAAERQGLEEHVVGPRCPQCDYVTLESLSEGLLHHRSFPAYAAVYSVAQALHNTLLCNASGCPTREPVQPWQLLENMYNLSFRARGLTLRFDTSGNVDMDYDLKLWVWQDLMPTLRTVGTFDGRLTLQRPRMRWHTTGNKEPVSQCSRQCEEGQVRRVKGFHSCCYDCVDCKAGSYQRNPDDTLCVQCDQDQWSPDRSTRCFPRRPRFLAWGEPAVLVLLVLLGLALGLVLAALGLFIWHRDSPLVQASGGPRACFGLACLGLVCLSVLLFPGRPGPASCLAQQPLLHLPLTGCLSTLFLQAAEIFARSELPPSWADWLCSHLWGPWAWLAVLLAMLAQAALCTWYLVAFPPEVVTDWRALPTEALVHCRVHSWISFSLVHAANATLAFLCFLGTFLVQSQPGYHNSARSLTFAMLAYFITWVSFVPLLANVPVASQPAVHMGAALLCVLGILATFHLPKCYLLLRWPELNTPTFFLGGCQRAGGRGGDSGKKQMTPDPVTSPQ
Assay: calcium mobilisation (Fluo-4), FlexStation3
Assay type: cell-based
Settings: agonist; transfected HEK293PEAKrapid Galpha15 cells; mock-transfected control; curves in mg/mL

`COc1cc(C=O)ccc1O` [vanillin] was tested, and the EC50 was “activation in response to stimulation with either each sweetener component of SMF (A)”.
